Patent US20030073721A1, “Peptide beta-strand mimics based on 1,2-dihydro-3(6H)-pyridinone” (THE REGENTS OF THE UNIVERSITY OF CALIFORNIA, a California …, priority 2001, published 2003)
Like-named read-outs stand apart in the source and are kept apart here. One block for each compound: values may come before it.

Biological target: homodimer
Assay: Dimer dissociation constant from concentration dependence of NH chemical shifts (NMR)
Assay type: binding
Text: Dimerization of the Ach-containing peptide analogs of this invention can be detected by observing changes in NH chemical shifts as a function of concentration. For a dimerization process with dissociation constant Kd and NMR chemical shifts δmono and δdi, respectively, the observed chemical shift, δobs, as a function of concentration c is expressed by the following equation: [formula]
Experimental data were obtained for Ac-Phe-Ach-Leu-Ach-Ile, N-methyl amide and for its corresponding sarcosine-containing peptide corresponding to Ac-Phe-Sar-Leu-Sar-Ile, N-methyl amide, as well as for various other Ach-containing peptide analogs of this invention terminating in carboxylic acid groups rather than N-methyl amide groups, all in CDCl3 or CD3OH/CDCl3 at 25° C.
To distinguish between the two species, the dissociation constants of dimers of each species were determined.

Kd (2.5% CD3OH/CDCl3, 25° C., read-out: Dissociation constant Kd (dimer)): 90 µM
Kd (5% CD3OH/CDCl3, 25° C., read-out: Dissociation constant Kd (dimer)): 8000 µM
Kd (pure chloroform, extrapolated from Kd vs CD3OH concentration, read-out: Dissociation constant in pure chloroform, extrapolation of the line in FIG. 1): ~0.13 µM
Compound: Ac-Phe-Ach-Leu-Ach-Val-OH [Ach-containing peptide analog terminating in carboxylic acid group]

Kd (15% CD3OH/CDCl3, 25° C., read-out: Dissociation constant Kd (dimer)): 1500 µM
Compound: Ac-Leu-Ach-Val-Ach-Leu-Ach-Phe-OH [Ach-containing peptide analog (heptamer) terminating in carboxylic acid group]

Kd (5% CD3OH/CDCl3, concentration range 0.6-42 mM, read-out: Dimer dissociation constant): 25000 µM
Compound: Phe-Gly-Ser-D-Pro-Ala-Leu-Ach-Ile [hybrid 1]

Kd (0% CD3OH/CDCl3 (pure CDCl3), 25° C., read-out: Dissociation constant Kd (dimer)): 400 µM
Compound: CCC(C)C(NC1=CC(=O)CN(C(=O)C(CC(C)C)NC2=CC(=O)CN(C(=O)C(Cc3ccccc3)NC(C)=O)C2)C1)C(=O)NC (stereo not drawn) [Ac-Phe-Ach-Leu-Ach-Ile-NHMe, Ac-Phe-Ach-Leu-Ach-Ile, N-Methyl Amide]
